Data as given in patent publication US11617777B2, “Cytotoxic and anti-mitotic compounds, and methods of using the same” (ZYMEWORKS BC INC., priority 2013, dated 2023).
Like-named read-outs stand apart in the source and are kept apart here.

Legend:
Test in all cases: Cytotoxicity of compounds, CellTiter-Glo
Jurkat cells = type: cell-based, Human; details: Homo sapiens, Jurkat
Summary of the method: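 HCC1954 plated at 2500 cells/100 uL and attached overnight; Jurkat plated at 2500 cells/100 uL on the day of dosing. Cells exposed to 8-step 1:3 compound titrations for three nights at 37° C./5% CO2, in triplicate. CellTiter-Glo luminescence converted to % cytotoxicity versus medium-only control; EC50 by three-parameter nonlinear regression.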

NCI-N87 = type: cell-based; details: Homo sapiens, Table 5, read-out: Cytotoxicity (EC50) NCI-N87
From the text: (§1) FIG. 1 summarizes the data for compounds A, B, C, D, and E when tested using the Human mammary carcinoma cell line HCC1954 or Human T-cell leukemia cell line Jurkat. FIGS. 2-6 show the cytotoxicity data plots for individual compounds A-E. Tables 2-6 summarize the results of additional cytotoxicity assays.
(§2) Cell lines used: Human T-cell leukemia cell line Jurkat (ATCC: TIB-152); HCC1954 (ATCC: CRL. 2338); Human Pancreatic cells lines: AsPC-1 (ATCC: CRL-1682), BxPC-3 (ATCC: CRL.1687), HPAF-II (ATCC: CRL.1997), MiaPaCa2 (ATCC: CRL.1420), PANC-1 (ATCC: CRL.1469), Capan-1 (ATCC: HTB-79), Capan-2 (ATCC: HTB-80) and the Human gastric carcinoma cell line NCI-N87 (ATCC: CRL. 5822); AML-193 (ATCC: CRL.9589), CCRF-CEM (ATCC: CCL-119), DU145 (ATCC: HTB-81), PC-3 (ATCC: CRL.1435), A-431 (ATCC: CRL.1555), HT-29 (ATCC: HTB-38), A-172 (ATCC: CRL.1620), NCI-H358 (ATCC: CRL.5807), A549 (ATCC: CCL-185), Colo-205 (ATCC: CCL-222), MDA-MB-231 (ATCC: HTB-26), OVCAR-3 (ATCC: HTB-161), OV-90 (ATCC: CRL.11732), OE19 (Sigma: 96071721), RT 112/84 (Sigma: 85061106).
(§3) On the day prior to adding compounds, HCC1954 AsPC-1, BxPC-3, HPAF-II, MiaPaCa2, PANC-1, Capan-1, Capan-2 and NCI-N87 cells were added to opaque-walled 96-well tissue culture-treated microtiter plates using complete growth medium at a density of 2500 cells/100 microlitre (uL) of medium. These adherant cell lines cells were incubated for one night at 37° C./5% CO2 to allow the cells to attach to the microtiter plate surface. On the day that compounds were added, Jurkat cells are added to separate 96-well microtiter plates at 2500 cells/100 uL using the same growth medium as HCC1954. Compound were first serially diluted using dimethyl sulfoxide, and then the prepared dilutions are added to complete growth medium at five-times the final concentration—compounds were then titrated 1:3, eight steps. A control with no compound (growth medium alone) was included on each microtiter plate in sextuplicate. The prepared compounds titrations were added (twenty-five uL/well) in triplicate. The cells and compound titrations were incubated at 37° C./5% CO2 for three nights. After the incubation, cell viability is measured using CellTiter-Glo® reagent by adding thirty uL of prepared CellTiter-Glo® to each assay well. The assay is incubated for at least twenty minutes in the dark prior to measuring emitted luminescence using a microplate luminometer (500 ms integration time). The collected relative luminescence units (RLU) are converted to % cytotoxicity using the Growth medium alone control mentioned above (% Cytotoxicity=1−[Well RLU/average medium alone control RLU]).
(§4) GraphPad Prism was used for generation of EC50 values using three parameter non-linear regression curve fitting.

AsPC-1 = type: cell-based; details: Homo sapiens, ASPC1, Table 5, read-out: Cytotoxicity (EC50) AsPC-1
From the text: as §1, §2, §3, §4

BxPC-3 = type: cell-based; details: Homo sapiens, Table 5, read-out: Cytotoxicity (EC50) BxPC-3
From the text: as §1, §2, §3, §4

HPAF-II = type: cell-based; details: Homo sapiens, Table 5, read-out: Cytotoxicity (EC50) HPAF-II
From the text: as §1, §2, §3, §4

MiaPaCa2 = type: cell-based; details: Homo sapiens, MIA PaCa-2; Table 5; MinPaCa2; read-out: Cytotoxicity (EC50) MinPaCa2
From the text: as §1, §2, §3, §4

PANC-1 = type: cell-based; details: Homo sapiens, Table 5, read-out: Cytotoxicity (EC50) PANC-1
From the text: as §1, §2, §3, §4

HCC1954 cells = type: cell-based; details: Homo sapiens
From the text: as §2, §3, §4

[1] = Table 3, Cytotoxicity of Compounds on Jurkat Cells, read-out: EC50
[2] = HCC1954, Table 4, Cytotoxicity of Compounds on HCC-1954 Cells, read-out: EC50
[3] = Table 6, Compound Cytotoxicity on Jurkat, read-out: EC50
[4] = Table 7, Cytotoxicity on Jurkat, read-out: EC50

Row | Structure (SMILES) | EC50 (Jurkat cells; [1]) [nM] | EC50 (HCC1954 cells; [2]) [nM] | EC50 (Jurkat cells; [3]) [nM] | EC50 (Jurkat cells; [4]) [nM] | further results
1 | CN[C@H](C(=O)N[C@H](C(=O)N(C)[C@H](/C=C(\C)C(=O)NS(=O)(=O)c1ccc(NC(=O)C(F)(F)F)cc1)C(C)C)C(C)(C)C)C(C)(C)c1ccccc1 [Compound 23, (S,E)-2,5-dimethyl-N-(4-(2,2,2-trifluoroacetamido)phenylsulfonyl)-4-((S)—N,3,3-trimethyl-2-((S)-3-methyl-2-(methylamino)-3-phenylbutanamido)butanamido)hex-2-enamide] | 0.031 |  |  |  | EC50 (NCI-N87): 0.402 nM
2 | CN[C@H](C(=O)N[C@H](C(=O)N(C)[C@H](/C=C(\C)C(=O)NS(=O)(=O)c1ccc(N)cc1)C(C)C)C(C)(C)C)C(C)(C)c1ccccc1 [Compound 24, (S,E)-N-(4-aminophenylsulfonyl)-2,5-dimethyl-4-((S)—N,3,3-trimethyl-2-((S)-3-methyl-2-(methylamino)-3-phenylbutanamido)butanamido)hex-2-enamide] | 0.07 |  |  |  | EC50 (AsPC-1): 0.586 nM; EC50 (BxPC-3): 0.27 nM; EC50 (HPAF-II): 0.396 nM; EC50 (MiaPaCa2): 0.566 nM; EC50 (PANC-1): 2.18 nM
3 | CN[C@H](C(=O)N[C@H](C(=O)N(C)[C@H](/C=C(\C)C(=O)NS(=O)(=O)c1ccc(C2(N)CC2)cc1)C(C)C)C(C)(C)C)C(C)(C)c1ccccc1 [Compound 63, (S,E)-N-(4-(1-aminocyclopropyl)phenylsulfonyl)-2,5-dimethyl-4-((S)—N,3,3-trimethyl-2-((S)-3-methyl-2-(methylamino)-3-phenylbutanamido)butanamido) hex-2-enamide] |  |  |  |  | EC50 (AsPC-1): 0.97 nM; EC50 (BxPC-3): 0.697 nM; EC50 (HPAF-II): 0.826 nM; EC50 (MiaPaCa2): 1.02 nM; EC50 (PANC-1): 4 nM
4 | CN[C@H](C(=O)N[C@H](C(=O)N(C)[C@H](/C=C(\C)C(=O)NS(=O)(=O)Cc1ccc(CN)cc1)C(C)C)C(C)(C)C)C(C)(C)c1ccccc1 [Compound 77, (S,E)-N-(4-(aminomethyl)benzylsulfonyl)-2,5-dimethyl-4-((S)—N,3,3-trimethyl-2-((S)-3-methyl-2-(methylamino)-3-phenylbutanamido)butanamido)hex-2-enamide] |  |  |  |  | EC50 (AsPC-1): 15.5 nM; EC50 (BxPC-3): 36.5 nM; EC50 (HPAF-II): 17.2 nM; EC50 (MiaPaCa2): 94.3 nM; EC50 (PANC-1): 97.2 nM
5 | CN[C@H](C(=O)N[C@H](C(=O)N(C)[C@H](/C=C(\C)C(=O)NS(=O)(=O)Cc1ccc(NC(=O)C(F)(F)F)cc1)C(C)C)C(C)(C)C)C(C)(C)c1ccccc1 [Compound 79, (S,E)-2,5-dimethyl-N-(4-(2,2,2-trifluoroacetamido)benzylsulfonyl)-4-((S)—N,3,3-trimethyl-2-((S)-3-methyl-2-(methylamino)-3-phenylbutanamido)butanamido)hex-2-enamide] | 0.386 | 0.241 |  |  | 
6 | CN[C@H](C(=O)N[C@H](C(=O)N(C)[C@H](/C=C(\C)C(=O)NS(=O)(=O)Cc1ccc(N)cc1)C(C)C)C(C)(C)C)C(C)(C)c1ccccc1 [Compound 80, (S,E)-N-(4-aminobenzylsulfonyl)-2,5-dimethyl-4-((S)—N,3,3-trimethyl-2-((S)-3-methyl-2-(methylamino)-3-phenylbutanamido)butanamido)hex-2-enamide] | 0.389 | 0.207 |  |  | 
7 | CN[C@H](C(=O)N[C@H](C(=O)N(C)[C@H](/C=C(\C)C(=O)NS(=O)(=O)c1ccc(N)c(C)c1C)C(C)C)C(C)(C)C)C(C)(C)c1ccccc1 [Compound 109, (S,E)-N-(4-amino-2,3-dimethylphenylsulfonyl)-2,5-dimethyl-4-((S)—N,3,3-trimethyl-2-((S)-3-methyl-2-(methylamino)-3-phenylbutanamido)butanamido) hex-2-enamide] |  |  | 0.087 | 0.087 | 
8 | CN[C@H](C(=O)N[C@H](C(=O)N(C)[C@H](/C=C(\C)C(=O)NS(=O)(=O)c1ccc(N)c2c1CCCC2)C(C)C)C(C)(C)C)C(C)(C)c1ccccc1 [Compound 110, (S,E)-N-(4-amino-5,6,7,8-tetrahydronaphthalen-1-ylsulfonyl)-2,5-dimethyl-4-((S)—N,3,3-trimethyl-2-((S)-3-methyl-2-(methylamino)-3-phenylbutanamido)butanamido)hex-2-enamide] |  |  | 0.031 | 0.031 | 
9 | CN[C@H](C(=O)N[C@H](C(=O)N(C)[C@H](/C=C(\C)C(=O)NS(=O)(=O)c1ccc(N)c(C)c1)C(C)C)C(C)(C)C)C(C)(C)c1ccccc1 [Compound 111, (S,E)-N-(4-amino-3-methylphenylsulfonyl)-2,5-dimethyl-4-((S)—N,3,3-trimethyl-2-((S)-3-methyl-2-(methylamino)-3-phenylbutanamido)butanamido)hex-2-enamide] |  |  | ~0.118 | 0.12 | 
10 | CN[C@H](C(=O)N[C@H](C(=O)N(C)[C@H](/C=C(\C)C(=O)NS(=O)(=O)c1ccc(N)c(F)c1)C(C)C)C(C)(C)C)C(C)(C)c1ccccc1 [Compound 112, (S,E)-N-(4-amino-3-fluorophenylsulfonyl)-2,5-dimethyl-4-((S)—N,3,3-trimethyl-2-((S)-3-methyl-2-(methylamino)-3-phenylbutanamido)butanamido)hex-2-enamide] |  |  | 0.064 | 0.064 | 
11 | CN[C@H](C(=O)N[C@H](C(=O)N(C)[C@H](/C=C(\C)C(=O)NS(=O)(=O)c1ccc(N)c(C(F)(F)F)c1)C(C)C)C(C)(C)C)C(C)(C)c1ccccc1 [Compound 114, (S,E)-N-(4-amino-3-(trifluoromethyl)phenylsulfonyl)-2,5-di methyl-4-((S)—N,3,3-trimethyl-2-((S)-3-methyl-2-(methylamino)-3-phenylbutanamido)butanamido)hex-2-enamide] |  |  | 0.056 | 0.056 | 
12 | C/C(=C\[C@H](C(C)C)N(C)C(=O)[C@@H](NC(=O)[C@@H]1CCCCN1C(C)C)C(C)(C)C)C(=O)NS(=O)(=O)CCCS [Compound 115, (S)-1-isopropyl-N—((S)-1-(((S,E)-6-(3-mercaptopropylsulfonamido)-2,5-dimethyl-6-oxohex-4-en-3-yl)(methyl)amino)-3,3-dimethyl-1-oxobutan-2-yl)piperidine-2-carboxamide] | 36 | 172 |  |  | 
13 | CN[C@H](C(=O)N[C@H](C(=O)N(C)[C@H](/C=C(\C)C(=O)NS(C)(=O)=O)C(C)C)C(C)(C)C)C(C)(C)c1ccccc1 [Compound E, (S,E)-2,5-dimethyl-N-(methylsulfonyl)-4-((S)—N,3,3-trimethyl-2-((S)-3-methyl-2-(methylamino)-3-phenylbutanamido)butanamido)hex-2-enanmide] | 1.67 | 0.79 |  |  | EC50 (HCC1954 cells; Table 1, HCC1954 cells (HER2+), three nights, read-out: HCC1954 cells (HER2+) EC50): 0.79 nM; EC50 (HCC1954 cells; Table 2, HCC1954, read-out: HCC1954 EC50): 0.79 nM; EC50 (Jurkat cells; Table 1, Jurkat cells (HER2−), three nights, read-out: Jurkat cells (HER2−) EC50): 1.67 nM; EC50 (Jurkat cells; Table 2, read-out: Jurkat EC50): 1.67 nM
